Two compounds from patent US20040081688A1, “Amphiphilic lipid nanoparticles for peptide and/or protein incorporation” (priority 2000, published 2004) can be followed below.

Series [1] is described as follows: Antide semi-quantitative solubility evaluation (maximum loading) in lipids. In kind it is physicochemical. The note with it: Antide maximum loading in the lipid named in the row.
Series [2] can be described thus: Partition coefficient octanol/water. In kind it is physicochemical. The note with it: 24 hours at room temperature, ratio of drug concentration in organic and water phase by RP-HPLC. As to the method: Partition coefficient: it was determined using octanol as organic phase and water as hydrophilic phase. The two phases were first saturated with each other for 24 hours at room temperature. Antide was then dissolved in the water phase at a concentration well below saturation. An equal volume of organic phase was subsequently added to the water phase and the mixture was kept under stirring for 24 hours at room temperature. Antide concentration in the two phases was determined by RP-HPLC and the partition coefficient was obtained from the ratio between the drug concentration in organic and water phase.
The resulting octanol/water coefficient was 8.56·10^−2

With `CCCCCCCCCCCCCCCCO` [Cetil alcohol], the “Antide loading (%)” value in series [1] is on record as 3.7 × 10^−2 - not soluble %.

Consider “N-Ac-D-2-Nal, D-pClPhe, D-3-Pal, Ser, NicLys, D-NicLys, Leu, Ilys, Pro, D-Ala, NH2 [Antide]”, for which the octanol/water coefficient in series [2] is given as 8.56·10^−2.
